Experimental data published in US11491120B2, “Pharmacological prophylactics against stress-induced affective disorders in females” (The Trustees of Columbia University in the City of New York, priority 2017, dated 2022).
“Also recorded” adds a separate entry of the source.

Legend:
female 129S6/SvEv mice [1] = test: Forced swim test (FST), immobility time, after stress
female 129S6/SvEv mice [2] = test: Elevated plus maze (EPM); type: in vivo, mouse; conditions: 0.025 mg/kg, 1 week prophylactic drug, learned helplessness stress
Experimental: The EPM was administered as previously described (58), with the exception that videos were scored using ANY-maze behavioral tracking software (Stoelting Co., Wood Dale, Ill.).
We have previously shown that prophylactic (R,S)-ketamine attenuates helpless behavior in male mice (18). To validate these findings in females, female mice were administered saline, (R,S)-ketamine, or (2R,6R)-HNK one week prior to LH training (FIG. 4A). Two weeks later, mice were tested for escape latency and for depressive- and anxiety-like behaviors in the FST and elevated plus maze (EPM). CFC was again administered following these behavioral assays.

[3] = Forced Swim Test Day 1, Dunnett test Sal vs. drug (0.3), 1 week prophylactic drug
[4] = Forced Swim Test Day 1, Dunnett test Sal vs. drug (2.5), 1 week prophylactic drug
[5] = Forced Swim Test Day 1, Dunnett test Sal vs. drug (10), 1 week prophylactic drug
[6] = Ovariectomized cohort, 1 week prophylactic drug, Forced Swim Test Day 1, OVX mice, K (10), (2R,6R)-HNK (0.025)
[7] = Ovariectomized cohort, 1 week prophylactic drug, Forced Swim Test Day 1, Sham mice, K (10), (2R,6R)-HNK (0.025)
[8] = Ovariectomized cohort, 1 week prophylactic drug, Forced Swim Test Day 1, Sham vs OVX, same drug, K (10), (2R,6R)-HNK (0.025)
[9] = Ovariectomized, E2/P4 replacement, 1 week prophylactic drug, Forced Swim Test Day 2, K (10), (2R,6R)-HNK (0.025), FIG. 5F
[10] = Ovariectomized, same drug, hormone Vehicle vs. E2/P4 replacement, 1 week prophylactic drug, Forced Swim Test Day 2, K (10), (2R,6R)-HNK (0.025), FIG. 5F
[11] = Sal vs. (2R,6R)-HNK (0.025), Fisher's PLSD, 1 week prophylactic drug, learned helplessness stress, Forced Swim Test Day 1
[12] = Sal vs. (2R,6R)-HNK (0.025), Fisher's PLSD, 3 day prophylactic drug/Forced Swim Test Day 1
[13] = Same drug, Sham vs. ovariectomized, 1 week prophylactic drug, Forced Swim Test Day 2, K (10), (2R,6R)-HNK (0.025), FIG. 5C
[14] = Sham-operated females, 1 week prophylactic drug, Forced Swim Test Day 2, K (10), (2R,6R)-HNK (0.025), FIG. 5C

N[C@@]1(c2ccccc2Cl)CCC[C@@H](O)C1=O [(2R,6R)-HNK, (2R,6R)-hydroxynorketamine]
p, Immobility Time Average (min 3-6) (female 129S6/SvEv mice [1]; Forced Swim Test Day 1, Dunnett test Sal vs. drug (0.1), 1 week prophylactic drug): 0.3240 | p, Immobility Time (min 1) (female 129S6/SvEv mice [1]; [3]): 0.0586 | p, Immobility Time (min 1-6) (female 129S6/SvEv mice [1]; [3]): >0.9999 | p, Immobility Time (min 3) (female 129S6/SvEv mice [1]; [3]): >0.9999 | p, Immobility Time (min 4) (female 129S6/SvEv mice [1]; [3]): 0.7424 | p, Immobility Time (min 5) (female 129S6/SvEv mice [1]; [3]): 0.3614 | p, Immobility Time (min 6) (female 129S6/SvEv mice [1]; [3]): 0.9996 | p, Immobility Time Average (min 3-6) (female 129S6/SvEv mice [1]; [3]): 0.9455 | * (significance), Immobility Time (min 1) (female 129S6/SvEv mice [1]; [4]): ** (** p<0.01) | p, Immobility Time (min 1) (female 129S6/SvEv mice [1]; [4]): 0.0026 | p, Immobility Time (min 1-6) (female 129S6/SvEv mice [1]; [4]): 0.7127 | p, Immobility Time (min 3) (female 129S6/SvEv mice [1]; [4]): 0.9998 | p, Immobility Time (min 4) (female 129S6/SvEv mice [1]; [4]): 0.9999 | p, Immobility Time (min 5) (female 129S6/SvEv mice [1]; [4]): 0.9867 | p, Immobility Time (min 6) (female 129S6/SvEv mice [1]; [4]): 0.9994 | p, Immobility Time Average (min 3-6) (female 129S6/SvEv mice [1]; [4]): 0.9997 | p, Immobility Time (min 1) (female 129S6/SvEv mice [1]; [5]): 0.0528 | p, Immobility Time (min 1-6) (female 129S6/SvEv mice [1]; [5]): 0.9943 | p, Immobility Time (min 3) (female 129S6/SvEv mice [1]; [5]): 0.6584 | p, Immobility Time (min 4) (female 129S6/SvEv mice [1]; [5]): 0.5947 | p, Immobility Time (min 5) (female 129S6/SvEv mice [1]; [5]): 0.6743 | p, Immobility Time (min 6) (female 129S6/SvEv mice [1]; [5]): 0.1601 | p, Immobility Time Average (min 3-6) (female 129S6/SvEv mice [1]; [5]): 0.3035 | p, Immobility Time (min 1-6), OVX Sal vs OVX drug (female 129S6/SvEv mice [1]; [6]): 0.2525 | p, Immobility Time Average (min 3-6), Fisher's PLSD, OVX Sal vs OVX drug (female 129S6/SvEv mice [1]; [6]): 0.3199 | p, Immobility Time (min 1-6), Sham Sal vs Sham drug (female 129S6/SvEv mice [1]; [7]): 0.7085 | p, Immobility Time Average (min 3-6), Fisher's PLSD, Sham Sal vs Sham drug (female 129S6/SvEv mice [1]; [7]): 0.9957 | * (significance), Immobility Time (min 1-6), Sham drug vs OVX drug (female 129S6/SvEv mice [1]; [8]): *** (*** p<0.0001) | * (significance), Immobility Time Average (min 3-6), Fisher's PLSD, Sham drug vs OVX drug (female 129S6/SvEv mice [1]; [8]): *** (*** p<0.0001) | p, Immobility Time (min 1-6), Sham drug vs OVX drug (female 129S6/SvEv mice [1]; [8]): <0.0001 | p, Immobility Time Average (min 3-6), Fisher's PLSD, Sham drug vs OVX drug (female 129S6/SvEv mice [1]; [8]): 0.0001 | p, Fisher's PLSD, Immobility Time Average (min 3-6), OVX Sal vs. OVX drug (female 129S6/SvEv mice [1]; Ovariectomized females, 1 week prophylactic drug, Forced Swim Test Day 2, K (10), (2R,6R)-HNK (0.025), FIG. 5C): 0.9445 | p, Fisher's PLSD, Immobility Time Average (min 3-6), E2/P4 Sal vs. E2/P4 drug (female 129S6/SvEv mice [1]; [9]): 0.0316 | significance (*), Fisher's PLSD, Immobility Time Average (min 3-6), E2/P4 Sal vs. E2/P4 drug (female 129S6/SvEv mice [1]; [9]): * (* p<0.05) | p, Fisher's PLSD, Immobility Time Average (min 3-6), Vehicle Sal vs. Vehicle drug (female 129S6/SvEv mice [1]; Ovariectomized, hormone Vehicle, 1 week prophylactic drug, Forced Swim Test Day 2, K (10), (2R,6R)-HNK (0.025), FIG. 5F): 0.6287 | p, Fisher's PLSD, Immobility Time Average (min 3-6), Vehicle drug vs. E2/P4 drug (female 129S6/SvEv mice [1]; [10]): 0.0013 | significance (*), Fisher's PLSD, Immobility Time Average (min 3-6), Vehicle drug vs. E2/P4 drug (female 129S6/SvEv mice [1]; [10]): ** (** p<0.01) | *, Immobility Time (min 1) (female 129S6/SvEv mice [1]; [11]): ** (** p<0.01) | *, Immobility Time (min 2) (female 129S6/SvEv mice [1]; [11]): *** (*** p<0.0001) | *, Immobility Time (min 3) (female 129S6/SvEv mice [1]; [11]): *** (*** p<0.0001) | *, Immobility Time (min 4) (female 129S6/SvEv mice [1]; [11]): ** (** p<0.01) | *, Immobility Time (min 5) (female 129S6/SvEv mice [1]; [11]): ** (** p<0.01) | *, Immobility Time (min 6) (female 129S6/SvEv mice [1]; [11]): ** (** p<0.01) | *, Immobility Time Average (min 1-6) (female 129S6/SvEv mice [1]; [11]): *** (*** p<0.0001) | p, Immobility Time (min 1) (female 129S6/SvEv mice [1]; [11]): 0.0043 | p, Immobility Time (min 2) (female 129S6/SvEv mice [1]; [11]): <0.0001 | p, Immobility Time (min 3) (female 129S6/SvEv mice [1]; [11]): 0.0001 | p, Immobility Time (min 4) (female 129S6/SvEv mice [1]; [11]): 0.0009 | p, Immobility Time (min 5) (female 129S6/SvEv mice [1]; [11]): 0.0002 | p, Immobility Time (min 6) (female 129S6/SvEv mice [1]; [11]): 0.0002 | p, Immobility Time Average (min 1-6) (female 129S6/SvEv mice [1]; [11]): 0.0001 | *, Immobility Time (min 1) (female 129S6/SvEv mice [1]; [12]): *** (*** p<0.0001) | *, Immobility Time (min 2) (female 129S6/SvEv mice [1]; [12]): ** (** p<0.01) | *, Immobility Time (min 3) (female 129S6/SvEv mice [1]; [12]): ** (** p<0.01) | *, Immobility Time (min 4) (female 129S6/SvEv mice [1]; [12]): ** (** p<0.01) | *, Immobility Time (min 5) (female 129S6/SvEv mice [1]; [12]): ** (** p<0.01) | *, Immobility Time (min 6) (female 129S6/SvEv mice [1]; [12]): ** (** p<0.01) | *, Immobility Time Average (min 3-6) (female 129S6/SvEv mice [1]; [12]): ** (** p<0.01) | p, Immobility Time (min 1) (female 129S6/SvEv mice [1]; [12]): <0.0001 | p, Immobility Time (min 2) (female 129S6/SvEv mice [1]; [12]): 0.0005 | p, Immobility Time (min 3) (female 129S6/SvEv mice [1]; [12]): 0.0073 | p, Immobility Time (min 4) (female 129S6/SvEv mice [1]; [12]): 0.0039 | p, Immobility Time (min 5) (female 129S6/SvEv mice [1]; [12]): 0.0006 | p, Immobility Time (min 6) (female 129S6/SvEv mice [1]; [12]): 0.0006 | p, Immobility Time Average (min 3-6) (female 129S6/SvEv mice [1]; [12]): 0.0008 | p, Immobility Time (min 1) (female 129S6/SvEv mice [1]; Sal vs. (2R,6R)-HNK (0.025), Fisher's PLSD, Antidepressant drug/Forced Swim Test Day 2): 0.2184 | p, Immobility Time Average (min 3-6) (female 129S6/SvEv mice [1]; Sal vs. (2R,6R)-HNK (0.025), t-test, 24 hour prophylactic drug/Forced Swim Test Day 1): 0.5779 | p, Fisher's PLSD, Immobility Time Average (min 3-6), Sham drug vs. OVX drug (female 129S6/SvEv mice [1]; [13]): 0.0476 | significance (*), Fisher's PLSD, Immobility Time Average (min 3-6), Sham drug vs. OVX drug (female 129S6/SvEv mice [1]; [13]): * (* p<0.05) | p, Fisher's PLSD, Immobility Time Average (min 3-6), Sham Sal vs. Sham drug (female 129S6/SvEv mice [1]; [14]): 0.0099 | significance (*), Fisher's PLSD, Immobility Time Average (min 3-6), Sham Sal vs. Sham drug (female 129S6/SvEv mice [1]; [14]): ** (** p<0.01) | Immobility in the FST (Day 1 and Day 2) vs saline (female 129S6/SvEv mice [1]; drug administered 1 hour after 3-shock CFC stressor, female mice): did not reduce immobility levels; also recorded: Neither (R,S)-ketamine nor (2R,6R)-HNK significantly affected immobility time | Prophylactically effective dose in females (female 129S6/SvEv mice [1]; female mice, 1 week before stressor): 0.025 mg/kg | Immobility in the FST vs saline (female 129S6/SvEv mice [1]; ovariectomized mice with cyclic E2 and P4 replacement, drug 1 week before CFC): significantly less immobile compared to control saline mice; also recorded: significantly reduced immobility | Prophylactic efficacy against stress-induced depressive-like behavior (female 129S6/SvEv mice [1]; single injection 1 week before stressor, female mice): significantly reduced stress-induced depressive-like behavior; also recorded: significantly decreased stress-induced depressive-like behavior; also recorded: is prophylactic against depressive-like behavior; also recorded: prophylactic against stress-induced depressive-like behavior; also recorded: effective prophylactics against a variety of stressors; also recorded: protect against stress-induced depressive-like behavior | P, Sal vs. drug, Fisher's PLSD: Time in Closed Arms Average (min 1-6), Elevated Plus Maze (female 129S6/SvEv mice [2]): 0.3285 | P, Sal vs. drug, Fisher's PLSD: Time in Open Arms Average (min 1-6), Elevated Plus Maze (female 129S6/SvEv mice [2]): 0.9855
